The nature of the data set: Reporter assay (No. 1), cell number reporter gene (sea pansy luciferase, pRL-TK), clone of Example 2. The class given is cell-based. The conditions noted are these: mouse, hepa1c1c7 cells, about 40 hours, ratio to 0 pg/ml, read-out: Amount of luminescence by sea pansy luciferase (from pRL-TK) Ratio. As to the method:
For the measured values of the amount of expression of the cell number reporter gene, a ratio is determined of the measured value in the test substance added group to the measured value in the only solvent added group (control group). When the ratio is, for example, in the range of 0.8 to 1.2, the measured value of the amount of expression of the ligand responsive reporter gene in the test substance added group is selected for evaluating the agonist or antagonist activity of the test substance against the ability of a ligand responsive transcriptional regulatory factor to promote transcription. When the ratio takes a small value such as smaller than 0.8, for example, it is possible that the test substance has cytotoxicity. In contrast, when the ratio takes a large value such as greater than 1.2, for example, it is possible that the test substance has activity against the transcriptional regulatory system of a gene without mediation of a ligand responsive transcriptional regulatory factor. However, the range of this ratio suitable for selecting the measured value of the amount of expression of the […] reporter gene may vary depending on certain properties of the present cells used and the conditions of measurement, and it is not limited to the above examples of numerical values.
Separately, plasmid pGV-Ya-XREx5 (ligand responsive reporter gene containing plasmid) constructed in Example 1 was digested with Bam HI. Further, plasmid pRL-TK (cell number reporter gene containing plasmid; marketed by Toyo Ink) containing the sea pansy luciferase gene used as the cell number reporter gene was digested with Bam HI, and neomycin resistance (aminoglycoside phosphotransferase) gene containing plasmid pRc/RSV (available from INVITROGEN) was digested with Hind III. These three digested plasmids, i.e., Bam HI digested pGV-Ya-XREx5 (2.8 µg), Bam HI digested pRL-TK (2.8 µg), and Hind III digested pRc/RSV (0.5 µg), were then mixed with 300 µl of αMEM medium (mixture A), while 36 µl of lipofectin (available from GIBCO-BRL) was mixed with 300 µl of αMEM medium (mixture B). After being left at room temperature for 30 minutes, mixtures A and B were combined together and left at room temperature for 10 minutes. The Hepa1clc7 cells cultured overnight as described above were then washed once with αMEM medium, to which there was added a solution prepared by adding and mixing additional 5.4 ml of αMEM medium to the above mixture (A + B). Culturing of the resulting mixture was carried out for 5 hours. The medium was then replaced with 10% serum containing αMEM medium, followed by further culturing overnight. Subsequently, the cells were scratched from the petri dishes and collected, and the collected cells were suspended in 10% serum containing αMEM medium to have the total volume of 100 ml. The resulting cell suspension was plated on 96 well plates at a ratio of 100 µl/well. After these plates were cultured overnight, a medium prepared by dissolving geneticin (hereinafter referred to as "G418") in 10% serum containing αMEM medium to have a concentration of 1.6 mg/ml was added at a ratio of 100 µl/well (G418 final concentration 800 µg/ml). Culturing was further continued for 3 weeks, during which the medium was replaced with 10% serum containing αMEM medium containing 800 µg/ml G418 at a rate of once per week. The volume of the medium was set at 200 µl/well. After said 3 weeks, cells were scratched from the wells in which colony formation had been observed, and collected (for 192 wells), and the collected cells were divided into three and independently plated on different plates, followed by continuous culturing for 4 days. To the first plate, only DMSO was added (solvent control), and to the second plate, 3-methylcholanthrene (hereinafter referred to as "3-MC") dissolved in DMSO was added so that the final concentration of 3-MC in the second plate came to 10 µM per well. The first and second plates were then cultured overnight. […]

The values below come from patent publication EP1148124A1 (priority 1999, dated 2000).

Read-outs that look alike come from different tables or passages of the source.

Consider `Clc1cc2c(cc1Cl)Oc1cc(Cl)c(Cl)cc1O2` [TCDD, 2,3,7,8-tetrachlorodibenzo-p-dioxin], for which the viability at 40 h was determined as 100% (final conc. 0.02 pg/ml); 90% (final conc. 0.2 pg/ml); 90% (final conc. 2 pg/ml); 80% (final conc. 20 pg/ml); 70% (final conc. 200 pg/ml); 60% (final conc. 2000 pg/ml). The viability at 40 h (final conc. 20000 pg/ml) was found to be 60%.
